Results as given in ChEMBL document CHEMBL4808208, “Hepatoselective Dihydroquinolizinone Bis-acids for HBsAg mRNA Degradation” (ACS Med Chem Lett, 2021).
Where “and” joins values, the source holds several entries; their conditions need not be identical. Identical values can stand only once. Calls of active or inactive are those of the source. The rule behind the calls is not given here.

Tests used:
[1] = molecular target: T1, Solute carrier organic anion transporter family member 1B1 (Homo sapiens, UniProt Q9Y6L6); assay: Substrate activity at OATP1B1 (unknown origin) expressed in HEK293 cells assessed as ratio of drug uptake in absence of transporter inhibitor,estradiol-17beta-glucuronide to drug uptake in presence of transporter inhibitor, estradiol-17beta-glucuronide by LC-MS/MS analysis; assay type: ADME, cell-based
T1 sequence (Q9Y6L6 whole entry): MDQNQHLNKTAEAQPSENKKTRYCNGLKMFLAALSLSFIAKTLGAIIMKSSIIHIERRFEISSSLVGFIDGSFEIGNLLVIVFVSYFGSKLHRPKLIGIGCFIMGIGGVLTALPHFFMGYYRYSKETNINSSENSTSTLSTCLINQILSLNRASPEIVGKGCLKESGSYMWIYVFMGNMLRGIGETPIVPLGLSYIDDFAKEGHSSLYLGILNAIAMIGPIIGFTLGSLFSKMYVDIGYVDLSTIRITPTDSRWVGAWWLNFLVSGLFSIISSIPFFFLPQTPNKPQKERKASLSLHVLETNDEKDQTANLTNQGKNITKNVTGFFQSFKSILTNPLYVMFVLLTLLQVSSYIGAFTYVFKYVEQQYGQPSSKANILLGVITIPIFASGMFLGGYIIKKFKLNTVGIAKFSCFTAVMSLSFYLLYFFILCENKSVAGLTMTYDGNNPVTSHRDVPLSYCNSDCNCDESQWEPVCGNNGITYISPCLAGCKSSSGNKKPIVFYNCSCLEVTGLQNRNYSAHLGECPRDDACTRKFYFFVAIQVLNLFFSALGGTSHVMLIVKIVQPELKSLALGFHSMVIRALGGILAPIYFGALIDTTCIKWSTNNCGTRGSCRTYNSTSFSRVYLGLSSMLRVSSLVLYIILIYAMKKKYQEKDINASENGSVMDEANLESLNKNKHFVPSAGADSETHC

[2] = molecular target: T2, Solute carrier organic anion transporter family member 1B3 (Homo sapiens, UniProt Q9NPD5); assay: Substrate activity at OATP1B3 (unknown origin) expressed in HEK293 cells assessed as ratio of drug uptake in absence of transporter inhibitor, estradiol-17beta-glucuronide to drug uptake in presence of transporter inhibitor, estradiol-17beta-glucuronide by LC-MS/MS analysis; assay type: ADME, cell-based
T2 sequence (Q9NPD5 whole entry): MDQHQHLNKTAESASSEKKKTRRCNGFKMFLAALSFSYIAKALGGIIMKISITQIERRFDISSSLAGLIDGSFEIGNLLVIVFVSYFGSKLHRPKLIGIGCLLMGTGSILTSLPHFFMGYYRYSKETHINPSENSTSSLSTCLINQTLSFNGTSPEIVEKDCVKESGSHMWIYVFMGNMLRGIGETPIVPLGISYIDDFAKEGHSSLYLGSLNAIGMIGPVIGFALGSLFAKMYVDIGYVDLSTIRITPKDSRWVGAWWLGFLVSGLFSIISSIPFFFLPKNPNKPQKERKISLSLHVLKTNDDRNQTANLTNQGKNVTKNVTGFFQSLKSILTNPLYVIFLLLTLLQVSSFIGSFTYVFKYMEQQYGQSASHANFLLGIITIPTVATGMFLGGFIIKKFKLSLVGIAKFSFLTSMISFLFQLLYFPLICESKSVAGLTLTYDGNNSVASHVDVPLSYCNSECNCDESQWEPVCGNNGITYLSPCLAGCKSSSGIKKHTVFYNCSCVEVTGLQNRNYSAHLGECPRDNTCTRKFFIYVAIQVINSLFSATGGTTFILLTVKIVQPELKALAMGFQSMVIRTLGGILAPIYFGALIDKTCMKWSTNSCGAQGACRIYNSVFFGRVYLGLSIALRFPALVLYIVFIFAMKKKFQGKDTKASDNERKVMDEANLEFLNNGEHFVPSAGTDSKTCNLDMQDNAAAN

[3] = Oral bioavailability in CD-1 mouse plasma at 8 mg/kg measured for 24 hrs by LC-MS/MS analysis; assay type: ADME, organism-based
[4] = Apparent permeability across basolateral to apical side in MDCK-MDR1 cells at 1 uM measured after 120 mins by LC-MS/MS analysis; assay type: ADME, cell-based, Canis lupus familiaris; details: dog
[5] = Drug concentration in CD-1 mouse liver at 8 mg/kg, po measured after 1 hr by LC-MS/MS analysis; assay type: ADME, organism-based; details: read-out: Ct
[6] = AUC (last) in CD-1 mouse plasma at 8 mg/kg, po measured for 24 hrs by LC-MS/MS analysis; assay type: ADME, organism-based; design: route oral, dose 8 mg/kg, time 24 hrs
Cytochrome P450 2D6 = Cytochrome P450 2D6 (Homo sapiens, UniProt P10635); assay: Inhibition of CYP2D6 in human liver microsomes using dextromethorphan as substrate preincubated for 5 mins followed by NADPH addition by LC-MS/MS analysis; assay type: ADME
Sequence of Cytochrome P450 2D6 (P10635 whole entry): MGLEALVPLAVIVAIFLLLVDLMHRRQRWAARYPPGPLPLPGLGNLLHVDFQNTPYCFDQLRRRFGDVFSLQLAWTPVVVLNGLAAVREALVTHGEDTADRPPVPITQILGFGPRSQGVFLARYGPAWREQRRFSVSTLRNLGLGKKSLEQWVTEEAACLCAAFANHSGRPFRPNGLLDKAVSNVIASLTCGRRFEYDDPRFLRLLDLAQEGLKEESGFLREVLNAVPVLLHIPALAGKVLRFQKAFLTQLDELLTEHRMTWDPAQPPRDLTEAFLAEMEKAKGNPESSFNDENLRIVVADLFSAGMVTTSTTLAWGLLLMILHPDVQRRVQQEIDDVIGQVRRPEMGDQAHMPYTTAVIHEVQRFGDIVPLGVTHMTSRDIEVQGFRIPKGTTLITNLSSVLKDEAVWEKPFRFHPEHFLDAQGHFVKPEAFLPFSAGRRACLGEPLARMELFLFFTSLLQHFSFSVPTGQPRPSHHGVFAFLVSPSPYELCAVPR

[7] = Metabolic stability in mouse liver microsomes assessed as clearance preincubated with compound for 10 mins followed by NADPH regenerating system addition and measured per mg protein for 60 mins by LC/MS-MS analysis; assay type: ADME, Microsome; details: time 70 min, read-out: CLH
Cytochrome P450 2C9 = Cytochrome P450 2C9 (Homo sapiens, UniProt P11712); assay: Inhibition of CYP2C9 in human liver microsomes using tolbutamide as substrate preincubated for 5 mins followed by NADPH addition by LC-MS/MS analysis; assay type: ADME
Sequence of Cytochrome P450 2C9 (P11712 whole entry): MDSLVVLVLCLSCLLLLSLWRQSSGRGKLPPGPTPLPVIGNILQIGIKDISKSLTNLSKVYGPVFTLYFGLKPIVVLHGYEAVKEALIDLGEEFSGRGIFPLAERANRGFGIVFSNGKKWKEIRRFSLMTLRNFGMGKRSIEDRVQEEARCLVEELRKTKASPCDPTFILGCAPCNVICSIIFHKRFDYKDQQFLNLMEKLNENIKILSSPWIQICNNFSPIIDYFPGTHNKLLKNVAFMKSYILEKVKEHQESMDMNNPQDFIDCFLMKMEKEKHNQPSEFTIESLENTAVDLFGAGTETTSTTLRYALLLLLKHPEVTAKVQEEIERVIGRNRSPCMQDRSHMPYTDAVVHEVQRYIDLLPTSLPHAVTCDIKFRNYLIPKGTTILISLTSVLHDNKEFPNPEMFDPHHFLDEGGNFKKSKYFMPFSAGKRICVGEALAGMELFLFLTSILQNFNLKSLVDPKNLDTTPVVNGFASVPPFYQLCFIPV

[8] = molecular target: Terminal nucleotidyltransferase 4B (Homo sapiens) (UniProt Q8NDF8); assay: Inhibition of Myc-DDK-tagged human PAPD5 expressed in HEK293 cells assessed as inhibition of poly-adenylation reaction using P32-labeled RNA oligonucleotides (5'-GCCUUUCAUCUCUAACUGCGAAAAAAAAAA-3') as substrate measured for 20 mins by phosphor imaging analysis; details: dose 0.37-10 µM
Sequence of Terminal nucleotidyltransferase 4B (Homo sapiens) (Q8NDF8 whole entry): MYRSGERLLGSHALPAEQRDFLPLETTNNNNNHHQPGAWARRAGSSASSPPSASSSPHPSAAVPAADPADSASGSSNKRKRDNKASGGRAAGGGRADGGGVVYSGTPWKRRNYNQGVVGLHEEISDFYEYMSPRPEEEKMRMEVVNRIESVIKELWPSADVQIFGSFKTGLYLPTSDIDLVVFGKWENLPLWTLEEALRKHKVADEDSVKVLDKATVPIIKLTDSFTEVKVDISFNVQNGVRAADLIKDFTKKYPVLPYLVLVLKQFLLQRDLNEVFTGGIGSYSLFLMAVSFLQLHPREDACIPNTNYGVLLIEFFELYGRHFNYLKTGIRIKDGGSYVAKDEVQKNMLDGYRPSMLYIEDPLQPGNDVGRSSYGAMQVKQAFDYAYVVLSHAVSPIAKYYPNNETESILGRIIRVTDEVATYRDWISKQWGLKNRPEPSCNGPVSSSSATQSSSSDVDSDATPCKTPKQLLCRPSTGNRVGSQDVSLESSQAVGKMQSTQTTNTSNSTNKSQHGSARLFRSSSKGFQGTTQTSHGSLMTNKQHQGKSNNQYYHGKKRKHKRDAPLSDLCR

[9] = AUC (last) in CD-1 mouse liver at 8 mg/kg, po measured for 24 hrs by LC-MS/MS analysis; assay type: ADME, organism-based; design: route oral, time 24 hrs, dose 8 mg/kg
[10] = Half life in CD-1 mouse plasma at 3 mg/kg, iv measured for 24 hrs by LC-MS/MS analysis; assay type: ADME, organism-based
Hepatitis B virus = assay: Antiviral activity against Hepatitis B virus infected in human HepG2.2.15 cells assessed as reduction in HBV subgenomic 2.4/2.1 kb mRNA level at 1 uM measured after 5 days by Northern blot analysis; assay type: functional, organism-based; details: time 5.0 day
[11] = Ratio of Cmax in liver to plasma in CD-1 mouse at 8 mg/kg, po by LC-MS/MS analysis; assay type: ADME, organism-based
[12] = 1-Octanol/saturated PBS buffer distribution coefficient, logD of the compound incubated for 1 hr by LC-MS/MS analysis; assay type: physicochemical
[13] = Cmax in CD-1 mouse plasma at 8 mg/kg, po measured for 24 hrs by LC-MS/MS analysis; assay type: ADME, organism-based; design: route oral, dose 8 mg/kg, time 24 hrs

Question: With COc1cc2c(cc1OCCCCCCC(=O)O)C[C@@H](C(C)C)n1cc(C(=O)O)c(=O)cc1-2 as the molecule, how does the Ratio [1] read?
Answer: 11.17

Question: What about the Ratio [2] of the same molecule?
Answer: 11.57

Question: What about the bioavailability [3] of the same molecule?
Answer: 5.1%

Question: And the Papp B→A at 2 h, 1 µM [4]?
Answer: 5.5 nm/s

Question: And the concentration at 1 h [5]?
Answer: 300 ng/mL and 660 nM

Question: And the AUC(0-t) at 24 h [6]?
Answer: 0.0347 µg·h/mL

Question: And the IC50 (Cytochrome P450 2D6)?
Answer: > 10 µM

Question: What about the microsomal CLint [7] of the same molecule?
Answer: 0.8 µL/min/mg

Question: What about the IC50 (Cytochrome P450 2C9) of the same molecule?
Answer: > 10 µM

Question: And the inhibition [8]?
Answer: Dose-Dependent Effect

Question: What about the AUC(0-t) at 24 h [9] of the same molecule?
Answer: 1.31 µg·h/mL

Question: And the half-life [10]?
Answer: 1.48 h

Question: What about the Activity (Hepatitis B virus) of the same molecule?
Answer: Active

Question: What about the Kp [11] of the same molecule?
Answer: 20.7

Question: And the logD at 1 h [12]?
Answer: -0.65

Question: What about the Cmax [13] of the same molecule?
Answer: 0.0161 µg/mL
